Patent US20230330089A1, “COVID PREVENTION AND TREATMENT USING AN INTEGRIN INHIBITOR” (priority 2022, published 2023)

Tested on: SARS-CoV-2 pseudovirus variants
Assay type: cell-based

SMILES	inhibition of Beta and Delta variant pseudovirus infection	inhibition of D614G pseudovirus infection	inhibition of D614G pseudovirus infection, single agent vs positive control	inhibition of D614G, Delta and Omicron pseudovirus infection	inhibition of Omicron and Delta pseudovirus infection compared with other variants	inhibition of infection by D614, D614G, N501Y, E484K, N+E, NEK, R685A pseudovirus variants
COc1ccc(S(=O)(=O)N[C@@H](CNc2nc(C)nc(N3CCC(c4ccc5c(n4)NCCC5)CC3)c2C)C(=O)O)cc1 [GLPG-0187]	most significant decrease in pseudovirus infection by the Delta variant	inhibited pseudovirus infection in a dose-dependent manner	inhibited pseudovirus infection	effectively blocked	more significantly than other variants	inhibition of viral infection of each variant
CNS(=O)(=O)Nc1nccc(Cc2c(C)c3ccc(Oc4ncccn4)cc3oc2=O)c1F [VS-6766]	–	–	inhibited pseudovirus infection	–	–	–
